Data set [1] deals with SK-Br3 cells. As to the kind of experiment: Fluorescence microscopy, non-specific interaction of near-infrared dyes with FR-negative cells. As to conditions: SK-Br3 cells (do not express FR), 30 minute incubation, 37° C. The class given is cell-based, human. On the procedure:
The folic acid receptors (FR)-mediated binding of near-infrared gluorescent conjugate PAMAM-PG16-ICG-folate was studied using a human nasopharyngeal epidermal carcinoma cell line KB and a human breast carcinoma cell line SK-BR3. KB cells over-express the FR, whereas SK-Br3 cells have no detectable […]. Cells were incubated with PAMAM-PG16-ICG-folate, indocyanine green (ICG, Sigma-Aldrich Corp. St. Louis, Mo.) or ICG-NH2 at 37° C. on cover clips in a 24-well place (Beckton Dickinson Labware, Franklin Kakes, N.J.). Each well contained 0.5 ml Dulbecco's Modified Eagle's medium/nutrient Mixture F-12 Ham (DMEM/F12) containing 10% FBS (Gibco, Grand Island, N.Y.). The final concentration of the conjugate was calculated based on the equivalent does of folic acid and ICG-NH2. For the blocking study, free folic acid was added to the culture medium 30 minutes prior to the addition of the test agents. […] Data were recorded by a Leica DMR microscope (Leica Microsystems Inc. Brannockburn, Ill.) equipped with a 75 W Xenon lamp, Indo-Cyanine Green and FITC filters (775/845 and 480/535, excitation/emission, respectively) (Chroma Technology Corp., Brattleboro, Vt.), Hamamatsue B/W Chilled CCD camera (Hamamatsu Photonics, K.K. Hamamamatsu City, Japan) and Image-Pro Plus 4.5.1 software (Media Cybernetics, L. P., Silver Spring, Md.). […]

For data set [2], the system named is human vulvar squamous A431 cell line. Nature of the data set: MTT assay, growth inhibition of A431 cells. In kind it is cell-based. The conditions noted are these: A-431, 72 hrs continuous incubation, equivalent TXL concentrations, read-out: estimated IC50, growth inhibition.
Method: The MTT assay was used to quantitatively compare the effects of PAMAM-PG8-TXL, linear PG-TXL, and paclitaxel on cell growth in a human vulvar squamous A431 cell line. Cells were plated in a 96-well plate at a density of 2000 cells/well and then incubated with various concentrations of paclitaxel, PAMAM-PG8-TXL, or linear PG-TXL.
Data set [3] is described as follows: Body weight loss after treatment. As to conditions: 60 mg/kg, single i.v. dose.
Data set [4] concerns syngeneic murine ovarian OCA-1 tumor. Nature of the data set: Tumor growth delay after a single intravenous dose. The conditions noted are these: dose of 60 mg/kg, single i.v. dose, tumors 8 mm.

As a reminder, the IC50 is the point on the concentration scale where inhibition reaches its midpoint.

On to `CC1(C)C(/C=C/C=C/C=C/C=C2\N(CCCCS(=O)(=O)O)c3ccc4ccccc4c3C2(C)C)=[N+](CCCCS(=O)(=O)[O-])c2ccc3ccccc3c21` [ICG, indocyanine green], for which the “fluorescence / non-specific interaction with cells” value in data set [1] is reported as “did not have detectable non-specific interaction”.

Turning to `CC(=O)O[C@H]1C(=O)[C@@]2(C)[C@H]([C@H](OC(=O)c3ccccc3)[C@]3(O)C[C@H](OC(=O)[C@H](O)[C@@H](NC(=O)c4ccccc4)c4ccccc4)C(C)=C1C3(C)C)[C@]1(OC(C)=O)CO[C@@H]1C[C@@H]2O` [paclitaxel], in data set [2], the IC50 is < 1 nM. In data set [3], this molecule returned a body weight loss of 10%. Further, in data set [4], the growth delay worked out at 14 days.
